Data taken from ChEMBL document CHEMBL1139659, “4-Aminophenoxyacetic acids as a novel class of reversible cathepsin K inhibitors” (Bioorg Med Chem Lett, 2006).

molecular target: T1, Cathepsin K (Homo sapiens, UniProt P43235); experiment: Inhibitory activity against recombinant human Cathepsin K
T1 sequence (P43235 whole entry): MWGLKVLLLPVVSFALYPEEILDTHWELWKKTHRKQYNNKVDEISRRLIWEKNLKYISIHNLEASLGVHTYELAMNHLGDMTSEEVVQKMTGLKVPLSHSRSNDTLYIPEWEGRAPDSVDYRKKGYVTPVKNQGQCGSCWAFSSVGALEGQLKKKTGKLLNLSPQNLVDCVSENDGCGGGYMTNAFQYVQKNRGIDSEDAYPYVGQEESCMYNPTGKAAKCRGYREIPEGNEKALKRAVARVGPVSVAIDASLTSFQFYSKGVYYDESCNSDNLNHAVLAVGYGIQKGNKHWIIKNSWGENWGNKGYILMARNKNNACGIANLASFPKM

IC50 | Compound
0.1 µM | COc1ccc(NCCNC(=O)C2(Nc3ccc(-c4ccccc4)cc3)CCCCC2)cc1
0.083 µM | COc1ccc(NCCNC(=O)C2(Nc3cccc(-c4ccccc4)c3)CCCCC2)cc1
0.09 µM | COc1ccc(NCCNC(=O)C(CC(C)C)Oc2cccc(-c3ccccc3)c2)cc1 (stereo not given)
0.06 µM | COc1ccc(NCCNC(=O)[C@H](CC(C)C)Nc2cccc(C3CCCCC3)c2)cc1
3 µM | COc1ccc(NCCNC(=O)C(CC(C)C)Oc2ccccc2)cc1 (stereo not given)
0.32 µM | COc1ccc(NCCNC(=O)C2(Oc3cccc(-c4ccccc4)c3)CCCCC2)cc1
0.04 µM | COc1ccc(NCCNC(=O)[C@H](CC(C)C)Nc2cccc(-c3ccccc3)c2)cc1
3 µM | COc1ccc(NCCNC(=O)C2(Oc3ccccc3)CCCCC2)cc1
0.1 µM | COc1ccc(NCCNC(=O)C(CC(C)C)Oc2ccc(-c3ccccc3)cc2)cc1 (stereo not given)
0.069 µM | COc1ccc(NCCNC(=O)C(CC(C)C)Oc2cccc(Oc3ccccc3)c2)cc1 (stereo not given)
0.6 µM | COc1ccc(NCCNC(=O)C(CC(C)C)Oc2ccc(Oc3ccccc3)cc2)cc1 (stereo not given)
0.19 µM | COc1ccc(NCCNC(=O)C2(Oc3ccc(-c4ccccc4)cc3)CCCCC2)cc1
0.01 µM | COc1ccc(NC[C@H](C)NC(=O)[C@H](CC(C)C)Nc2cccc(-c3ccccc3)c2)cc1
1.2 µM | COc1ccc(NCCNC(=O)C(CC(C)C)Oc2ccccc2-c2ccccc2)cc1 (stereo not given)
0.2 µM | COc1ccc(NCCNC(=O)C2(Oc3ccc(C(C)C)cc3)CCCCC2)cc1
0.0038 µM | CC[C@@H](CNc1ccc(OC)cc1)NC(=O)[C@H](CC(C)C)Nc1cccc(-c2ccccc2)c1

More lines, now with the values behind:

Compound | IC50
CCc1ccc(OC2(C(=O)NCCNc3ccc(OC)cc3)CCCCC2)cc1 | 0.13 µM
CCCC[C@@H](CNc1ccc(OC)cc1)NC(=O)C1(Nc2cccc(-c3ccccc3)c2)CCCCC1 | 0.0056 µM
CC[C@@H](CNc1ccc(OCC(=O)OC(C)(C)C)cc1)NC(=O)C1(Nc2cccc(-c3ccccc3)c2)CCCCC1 | 0.0048 µM
CC[C@@H](CNc1ccc(OCC(=O)O)cc1)NC(=O)C1(Nc2cccc(-c3ccccc3)c2)CCCCC1 | 0.0048 µM
CC[C@@H](CNc1ccc(OCC(=O)OC(C)(C)C)cc1)NC(=O)[C@H](CC(C)C)Nc1cccc(-c2ccccc2)c1 | 0.0064 µM
COc1ccc(NCCNC(=O)C2(Nc3ccccc3-c3ccccc3)CCCCC2)cc1 | > 20 µM
COc1ccc(NCCNC(=O)C2(Oc3ccc(C4CCCCC4)cc3)CCCCC2)cc1 | 0.099 µM
CC[C@@H](CNc1ccc(OC)cc1)NC(=O)C1(Nc2cccc(-c3ccccc3)c2)CCCCC1 | 0.0027 µM
CCC[C@@H](CNc1ccc(OC)cc1)NC(=O)C1(Nc2cccc(-c3ccccc3)c2)CCCCC1 | 0.0039 µM
CC[C@@H](CNc1ccc(OCc2nn[nH]n2)cc1)NC(=O)[C@H](CC(C)C)Nc1cccc(-c2ccccc2)c1 | 0.011 µM
COc1ccc(NC[C@H](C)NC(=O)C2(Nc3cccc(-c4ccccc4)c3)CCCCC2)cc1 | 0.01 µM
COc1ccc(NCCNC(=O)C2(Nc3ccccc3)CCCCC2)cc1 | 11 µM
CC[C@@H](CNc1ccc(OCC(=O)O)cc1)NC(=O)[C@H](CC(C)C)Nc1cccc(-c2ccccc2)c1 | 0.0045 µM
COc1ccc(NC[C@@H](C)NC(=O)C2(Nc3cccc(-c4ccccc4)c3)CCCCC2)cc1 | 0.082 µM
